According to paper PMC5809414, “Physician-initiated clinical study of limb ulcers treated with a functional peptide, SR-0379: from discovery to a randomized, double-blind, placebo-controlled trial” (NPJ Aging and Mechanisms of Disease, 2018):
Where “and” joins values, the source holds several entries; their conditions need not be identical. Equal entries are not always repeated. Where two headings read alike, the source gives them in different places. Where a SMILES comes first, the peptide text is derived from it. [ ]: non-standard residue; d: D form.

How the values were obtained:
[1] = system: endothelial cell and fibroblast; conditions: in vitro; cited from earlier work
Description: SR-0379 also promoted angiogenesis, granulation tissue formation, and endothelial cell and fibroblast proliferation in vitro. In this study, we conducted a multi-center, double-blinded, randomized phase I/IIa clinical study to evaluate the safety, efficacy, and pharmacokinetics of SR-0379 for the treatment of leg ulcers.

infected wound = conditions: rat infected wound model, compared with FGF2; cited from earlier work
healthy men = system: healthy men; parameters: species or system human; conditions: in vivo
Protocol: A closed patch test was performed with SR-0379 at Shinanozaka Clinic (Shinjuku, Tokyo, Japan); the study protocol was approved by the Shinanozaka Clinic institutional review board. The registry number is UMIN000015391, and the URL is https://upload.umin.ac.jp/cgi-open-bin/ctr_e/ctr_view.cgi?recptno=R000017479. Sixty-six men were screened after obtaining informed consent, and a total of 20 healthy men were enrolled for the patch test after obtaining informed consent between October and November 2014. The inclusion criteria for healthy men were: (1) adult age (≧20 years and ≦40 years); (2) body mass index (≧18.5 and <25.0 kg/m^2); and (3) systolic blood pressure (SBP, ≦140 mmHg) and diastolic blood pressure (DBP, ≦90 mmHg); additionally, patients were to be within normal limits in an ECG test. The exclusion criteria were drug allergy or a history thereof, atopic dermatitis or allergic contact dermatitis, skin with dermatitis or inflammation, organ failure (heart, liver, kidney, blood), and others. The closed patch test was performed with a Finn chamber (7 mm) using filter paper containing 0.015 mL of SR-0379 solution (0%, 0.02%, 0.1%, 0.25%, or 0.5%). The allocation was generated by a coordinator and masked for the evaluator. […] Results were evaluated at 1 and 24 h after removal and graded according to the International Contact Dermatitis Research Group criteria (grades 1–6). […]

[2] = system: Pseudomonas aeruginosa, Staphylococcus aureus, MRSA, and Streptococcus pyogenes; test: Bacterial wound cultures (change pre to post); assay type: in vivo, human; conditions: n = 3
Protocol: (§1) The primary outcome was the rate of wound size reduction at 4 weeks after the first treatment compared with pre-treatment wound size. Additionally, the following secondary endpoints were measured at 4 weeks after the first treatment and compared with pre-treatment status: time to wound closure; 50% wound size reduction ratio; quantification of Pseudomonas aeruginosa, Staphylococcus aureus, MRSA, and Streptococcus pyogenes; and overall evaluated ulcer improvement. Ulcer size was quantified based on skin ulcer pictures according to a defined procedure using ImageJ software and calculated as the percent change. We also used the DESIGN-R score index, which is calculated based on six components (exudate, size, infection/inflammation, granulation tissue, necrotic tissue, and pocket size), as a tool to score pressure ulcer severity.[23] Depth was excluded from the calculation. The total score was calculated by weighting the score of each item; a high score indicates greater severity. The safety of SR-0379 was evaluated during the treatment period (28 days) every 7 days and post-treatment (7 days) according to the Common Terminology Criteria for Adverse Events (version 4.0).

leg ulcers = test: Phase I/IIa randomized, double-blind, placebo-controlled study: wound size, closure, DESIGN-R, overall improvement; assay type: in vivo, human; conditions: for skin ulcer rate of reduction at the final evaluation (4th week or discontinuation): vs pre-treatment wound size, mean ± SD; for skin ulcer rate of reduction at the final evaluation (4th week or discontinuation) / Overall improvement, Mild: number of patients / Overall improvement, Moderate: number of patients / Overall improvement, No change: number of patients / Overall improvement, Worse: number of patients / Skin ulcer size, 2 weeks after treatment (mean ± SD) / Skin ulcer size, Post-treatment (mean ± SD) / Wound closure, Yes: number of patients (%) / DESIGN-R total score, Post-mean (SD) / Overall improvement, Significant: number of patients: n = 3; for DESIGN-R total score, Pre-mean (SD): n = 3, baseline; for DESIGN-R total score, Pre-mean (SD) / DESIGN-R total score, Post-mean (SD): depth excluded, 0 (healed) to 66; for Overall improvement, Significant: number of patients: evaluation by investigators
Protocol: GMP-grade SR-0379 peptide was generated by the American Peptide Company (Torrance, CA, USA). The peptide was dissolved in a physiological salt solution, and spray-type containers were charged with 10 mL of SR-0379 solution under GMP conditions by Nagase Medical Co. Ltd. (Itami, Hyogo, Japan). A total of 0.05 mL of SR-0379 solution was administered per spray using this container. According to the protocol, each patient received 0.25 mL of SR-0379 solution over five sprays once per day for 28 days.
The clinical trial was conducted as an investigator-initiated, phase I/IIa, randomized, double-blind, placebo-controlled trial at five hospitals (Osaka University Hospital, Osaka; Chiba University Hospital, Chiba; Asano-Kanamachi Clinic, Tokyo; Medical Plaza Shinozakieki Nishiguchi, Tokyo; and Kasukabe Chuo General Hospital, Saitama) in Japan. Twelve patients were randomized into four groups and treated with 0.02%, 0.1%, or 0.5% SR-0379 or placebo treatment. The inclusion criteria for this clinical trial were: (1) adult (age≧20 years), (2) a diagnosis of diabetic ulcer or limb ulcer (artery or venous ulcer); and (3) wound size <6 cm in diameter. Exclusion criteria is (1) infection to be cured with antibiotics, (2) deep ulcer with reaching bone tissue, (3) skin ulcer with malignant tumor, (4) severe edema around skin ulcer, (5) patients with malignant tumor, (6) patients with severe heart failure, (7) patients with severe liver, kidney, and blood dysfunction, (8) malnutrition (serum albumin ≦2 g/dL), (9) poor general condition due to severe systemic infection, (10) poor control of hyperglycemia (HbA1c ≧9.0%), (11) pregnant women, and men or women who disagreed to avoid pregnancy during clinical trial period, (12) patients who changed from an oral to an intravenous drug to regulate blood flow (i.e., prostaglandin E1, prostacyclin I2) from 2 weeks before SR-0379 or placebo treatment, (13) surgical procedure for skin ulcer from 2 weeks before SR-0379 or placebo treatment, (14) attendance to other clinical trial from 12 weeks before SR-0379 or placebo treatment, and (15) judgment as an inappropriate patient by principle investigator. The study protocol was approved by the institutional review board of each hospital. Patients gave written informed consent before enrollment.
Twelve patients were randomized into four groups and treated with 0.02%, 0.1,% or 0.5% SR-0379 or placebo treatment. The allocation was generated by a computer program before starting the initial enrollment, and the allocation coordinator concealed the allocation information until the last patient finished. The placebo drug was indistinguishable in terms of appearance. The trial drugs were distributed to each hospital according to the allocation schedule for each patient. All study personnel and patients were masked to treatment group allocation.
SR-0379 (0.02%, 0.1%, and 0.5%) or placebo was topically administered after cleaning with soap once per day for 28 days. After treatment, the wound was covered with a piece of gauze. […] No topical wound healing drugs were used in combination with SR-0379 or placebo for the same skin ulcer, and the topical use of FGF2 (trafermin) was prohibited starting 2 weeks before treatment through the final treatment.
Upon study entry, clinical assessments, skin ulcer evaluations, blood and urine tests, chest radiographs, and ECGs were performed 1 week before treatment. Prior to the first treatment, clinical assessments and skin ulcer evaluations were performed, and plasma SR-0379 levels were measured at 15 and 60 min after the first treatment. After treatment, clinical assessments, skin ulcer evaluation, blood and urine tests, and ECGs were performed, and plasma SR-0379 levels were measured at 15 and 60 min after the final treatment. During the follow-up period (1 week after treatment), patients received appropriate treatment, including FGF2 (trafermin). […]

[3] = Safety evaluation (adverse events) in the clinical study; assay type: in vivo, human
Protocol: as §1

venous leg ulcers = conditions: cited from earlier work
Description: Recently, another anti-microbial peptide, LL-37, was similarly evaluated for venous leg ulcers.[26] The study design consisted of a 4-week randomized double-blind t ...

## CC[C@H](C)[C@H](NC(=O)[C@H](CC(C)C)NC(=O)[C@H](CCCCN)NC(=O)[C@H](CC(C)C)NC(=O)[C@@H](N)CCSC)C(=O)N[C@@H](Cc1ccccc1)C(=O)N[C@@H](CC(C)C)C(=O)N[C@@H](Cc1c[nH]cn1)C(=O)N[C@@H](CCCNC(=N)N)C(=O)N[C@@H](CC(C)C)C(=O)N[C@@H](CCCCN)C(=O)N[C@@H](CCCNC(=N)N)C(=O)N[C@@H](CCSC)C(=O)N[C@@H](CCCNC(=N)N)C(=O)N[C@@H](CCCCN)C(=O)N[C@@H](CCCNC(=N)N)C(=O)N[C@@H](CC(C)C)C(=O)N[C@H](CCCCN)C(=O)N[C@@H](CCCNC(=N)N)C(=O)N[C@@H](CCCCN)C(=O)O [SR-0379] (H-MLKLIFLHRLKRMRKRL[dK]RK-OH; N-terminus and C-terminus assumed)
[1]
  angiogenesis, granulation tissue formation, and endothelial cell and fibroblast proliferation: promoted
Infected wound
  wound healing effect: higher than that of fibroblast growth factor 2 (FGF2)
Healthy men
  skin irritation index scores, assessment: within permitted levels for clinical usage
  vital signs and electrocardiogram (ECG): no abnormal findings
[2]; 0.02% group
  Bacterial wound cultures, Decrease: number of patients: 2
  Bacterial wound cultures, Increase: number of patients: 1
  Bacterial wound cultures, No change: number of patients: 0
[2]; 0.1% group
  Bacterial wound cultures, Decrease: number of patients: 2
  Bacterial wound cultures, Increase: number of patients: 0
  Bacterial wound cultures, No change: number of patients: 1
[2]; 0.5% group
  Bacterial wound cultures, Decrease: number of patients: 1
  Bacterial wound cultures, Increase: number of patients: 0
  Bacterial wound cultures, No change: number of patients: 1
Leg ulcers; 0.02% SR-0379, 2 weeks after treatment
  Size reduction (percent decrease) of skin ulcers, mean: -3.157%
Leg ulcers; 0.02% SR-0379, diabetic ulcer, foot (lateral malleolus), Werner Syndrome patient
  Size decrease, single patient: 61.45%
Leg ulcers; 0.02% SR-0379, diabetic ulcer, low leg
  Size decrease, single patient: 75.00%
Leg ulcers; 0.02% SR-0379, ischemic ulcer, finger
  Size decrease, single patient: -2.27%
Leg ulcers; 0.02% SR-0379 topical once per day for 28 days
  skin ulcer rate of reduction at the final evaluation (4th week or discontinuation): 44.73 ± 41.26% and 44.727%
Leg ulcers; 0.02% group
  Overall improvement, Mild: number of patients: 1
  Overall improvement, Moderate: number of patients: 1
  Overall improvement, No change: number of patients: 0
  Overall improvement, Worse: number of patients: 1
  Skin ulcer size, 2 weeks after treatment (mean ± SD): 0.777 ± 0.783
  Skin ulcer size, Post-treatment (mean ± SD): 0.563 ± 0.698
  Wound closure, Yes: number of patients (%): 0 (0%)
  DESIGN-R total score, Pre-mean (SD): 9.3 (4.7)
  DESIGN-R total score, Post-mean (SD): 4.3 (1.5)
  Overall improvement, Significant: number of patients: 1
Leg ulcers; 0.1% SR-0379, 2 weeks after treatment
  Size reduction (percent decrease) of skin ulcers, mean: 38.36%
Leg ulcers; 0.1% SR-0379, diabetic ulcer, foot (heel), Werner Syndrome patient
  Size decrease, single patient: 34.93%
Leg ulcers; 0.1% SR-0379, diabetic ulcer, foot, patient with skin abrasion
  Size decrease, single patient: 87.50%
Leg ulcers; 0.1% SR-0379, ischemic ulcer, finger
  Size decrease, single patient: 82.32%
Leg ulcers; 0.1% SR-0379 topical once per day for 28 days
  skin ulcer rate of reduction at the final evaluation (4th week or discontinuation): 68.25 ± 28.98% and 68.247%
Leg ulcers; 0.1% group
  Overall improvement, Mild: number of patients: 1
  Overall improvement, Moderate: number of patients: 1
  Overall improvement, No change: number of patients: 0
  Overall improvement, Worse: number of patients: 0
  Skin ulcer size, 2 weeks after treatment (mean ± SD): 0.320 ± 0.381
  Skin ulcer size, Post-treatment (mean ± SD): 0.473 ± 0.488
  Wound closure, Yes: number of patients (%): 0 (0%)
  DESIGN-R total score, Pre-mean (SD): 9.0 (1.0)
  DESIGN-R total score, Post-mean (SD): 5.3 (4.0)
  Overall improvement, Significant: number of patients: 1
Leg ulcers; 0.5% SR-0379, 2 weeks after treatment
  Size reduction (percent decrease) of skin ulcers, mean: 14.443%
Leg ulcers; 0.5% SR-0379, diabetic ulcer, foot, complete ulcer closure
  Size decrease, single patient: 100%
Leg ulcers; 0.5% SR-0379, venous ulcer, low leg
  Size decrease, single patient: 14.84%
Leg ulcers; 0.5% SR-0379 topical once per day for 28 days
  skin ulcer rate of reduction at the final evaluation (4th week or discontinuation): 71.61 ± 49.17% and 71.613%
Leg ulcers; 0.5% group
  Overall improvement, Mild: number of patients: 0
  Overall improvement, Moderate: number of patients: 3
  Overall improvement, No change: number of patients: 0
  Overall improvement, Worse: number of patients: 0
  Skin ulcer size, 2 weeks after treatment (mean ± SD): 1.910 ± 3.179
  Skin ulcer size, Post-treatment (mean ± SD): 1.760 ± 3.048
  DESIGN-R total score, Pre-mean (SD): 12.0 (7.2)
  DESIGN-R total score, Post-mean (SD): 5.3 (5.1)
  Overall improvement, Significant: number of patients: 0
[3]; 0.5% SR-0379, person, pneumonia
  Adverse event: Outcome: Death
[3]; human, in vivo
  Adverse event: Causality: No
  local adverse events such as itching, rash, or pain during treatment: no local adverse events
  relation of all adverse events to SR-0379 treatment: unrelated

## LL-37
Venous leg ulcers; 0.5 mg/mL LL-37, 4-week treatment, p = 0.003 vs placebo
  healing rate constants: higher than those for placebo
Venous leg ulcers; 1.6 mg/mL LL-37, 4-week treatment, p = 0.088 vs placebo
  healing rate constants: higher than those for placebo
